Measured values taken from paper PMC11259170, “Small-molecule probe for IBD risk variant GPR65 I231L alters cytokine signaling networks through positive allosteric modulation” (Science Advances, 2024).
Values after ≈ are worked out from the molar mass of the structure shown. Like-named read-outs stand apart in the source and are kept apart here.

Legend:
[1] = test system: WT HeLa cells expressing hGPR65; experiment: Cytotoxicity assay (CellTiter-Glo, 72 hours); type: cell-based, human
Protocol: WT HeLa cells expressing hGPR65 were seeded at 2000 cells per well in 384-well plates. Compounds were tested in 10-point dose, starting at 50 μM. Cells were incubated with compounds for 72 hours at 37°C, 5% CO2. Cytotoxicity was measured using CellTiter-Glo Luminescent Cell Viability Assay (Promega, G7572) according to the manufacturer’s protocol. Luminescence measurements were made on BMG Labtech PHERAstar FSX. Data analysis was performed using GraphPad Prism.

hGPR65 I231L-SmBiT = target: T1, hGPR65 I231L-SmBiT (Homo sapiens, UniProt Q8IYL9, I231L); experiment: Nano-BiT target engagement, LgBiT-mGs recruitment to hGPR65 I231L-SmBiT; type: cell-based; conditions: 10 μM
T1 construct: expressed in transfected cells; host or cells: Expi293F (Gibco), transient transfection
T1 sequence (Q8IYL9 whole entry I231L): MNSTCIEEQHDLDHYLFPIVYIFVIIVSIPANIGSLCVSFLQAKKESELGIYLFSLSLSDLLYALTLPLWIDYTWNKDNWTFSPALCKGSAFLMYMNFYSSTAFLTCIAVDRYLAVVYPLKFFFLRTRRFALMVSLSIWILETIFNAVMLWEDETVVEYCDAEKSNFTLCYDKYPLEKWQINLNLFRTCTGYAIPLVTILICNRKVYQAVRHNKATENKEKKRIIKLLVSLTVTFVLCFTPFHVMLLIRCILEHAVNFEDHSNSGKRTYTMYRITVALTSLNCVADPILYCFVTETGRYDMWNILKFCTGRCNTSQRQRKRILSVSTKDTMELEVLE
Protocol: (§1) Target engagement was measured in Expi293F (Gibco, 100044202) cells using the Nano-Glo Live Cell Assay System (Promega, N2011). Nano-BiT plasmids were cloned from GPR65-, GPR4-, and GPR68-Tango plasmids. GPR65-Tango (Addgene plasmid # 66370; http://n2t.net/addgene:66370; RRID:Addgene_66370), GPR4-Tango (Addgene plasmid # 66358; http://n2t.net/addgene:66358; RRID:Addgene_66358), and GPR68-Tango (Addgene plasmid # 66371; http://n2t.net/addgene:66371; RRID:Addgene_66371) were gifts from Bryan Roth. Expi293F cells were transfected 1 day before kinetics with 500 ng of each plasmid using ExpiFectamine 293 Transfection Kit (Gibco, A14525). After 24 hours, cells were collected, washed, and resuspended in room temperature 0.1% PBS-BSA, adjusted to pH 7.4 using 1 M NaOH. Cells were transferred to white opaque 96-well microplates (100 μl per well, PerkinElmer, 6005290), followed by addition of the Nano-Glo Live Cell Reagent (25 μl per well). Baseline luminescence was measured for 10 cycles (1 cycle = 90 s) before adding compounds. All luminescence measurements were made on BMG Labtech PHERAstar FSX. Data analysis was performed using GraphPad Prism.

hGPR65-SmBiT = target: T2, hGPR65-SmBiT (Homo sapiens, UniProt Q8IYL9); experiment: Nano-BiT target engagement, LgBiT-mGs recruitment to hGPR65-SmBiT in Expi293F cells; type: cell-based
T2 construct: expressed in transfected cells; host or cells: Expi293F (Gibco), transient transfection
T2 sequence (Q8IYL9 whole entry): as the sequence (Q8IYL9 whole entry I231L) above, with L231I counted along it
Protocol: as §1

hGPR65 = target: T3, hGPR65 (Homo sapiens, UniProt Q8IYL9); experiment: cAMP detection in HeLa expression cell line, hGPR65; type: cell-based; conditions: for Emax: HeLa, relative to 100uM forskolin (100%) and DMSO (0%), read-out: hGPR Max Activity %
T3 construct: expressed in transfected cells; host or cells: HeLa (ATCC CCL-2), lentiviral transduction, pLX317
T3 sequence (Q8IYL9 whole entry): as the sequence (Q8IYL9 whole entry I231L) above, with L231I counted along it
Outline: (§2)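 Lentivirally transduced HeLa, V5-tagged GPCR, puromycin 3 μg/ml. 1500 cells/well, stimulation buffer pH 7.2, compound (10 mM DMSO stock), 30 min RT. Lyse, detection reagents 1 h dark RT. TR-FRET cAMP kit, ex 337, em 620/665.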

[2] = Solubility in phosphate buffer; type: physicochemical; conditions: read-out: solubility in phosphate buffer
hGPR4-SmBiT = target: T4, hGPR4-SmBiT (Homo sapiens, UniProt P46093); experiment: Nano-BiT target engagement, LgBiT-mGs recruitment to hGPR4-SmBiT; type: cell-based; conditions: 10 μM
T4 construct: expressed in transfected cells; host or cells: Expi293F (Gibco), transient transfection
T4 sequence (P46093 whole entry): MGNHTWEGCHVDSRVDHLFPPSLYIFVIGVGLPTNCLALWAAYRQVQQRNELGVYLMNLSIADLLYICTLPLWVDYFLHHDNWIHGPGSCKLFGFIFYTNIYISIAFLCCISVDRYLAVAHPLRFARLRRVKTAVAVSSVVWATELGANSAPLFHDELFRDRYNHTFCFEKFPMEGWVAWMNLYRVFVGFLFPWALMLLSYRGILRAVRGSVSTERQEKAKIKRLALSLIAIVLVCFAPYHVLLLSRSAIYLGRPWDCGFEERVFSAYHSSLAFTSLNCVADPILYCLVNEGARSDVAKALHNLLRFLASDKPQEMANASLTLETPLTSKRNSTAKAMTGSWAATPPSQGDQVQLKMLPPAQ
Protocol: as §1

Lipophilicity (logD) = type: physicochemical
mGPR65 = target: T5, mGPR65 (Mus musculus, UniProt Q61038); experiment: cAMP detection in HeLa expression cell line, mGPR65; type: cell-based; conditions: for Emax: HeLa, relative to 100uM forskolin (100%) and DMSO (0%), read-out: mGPR Max Activity %
T5 construct: expressed in transfected cells; host or cells: HeLa (ATCC CCL-2), lentiviral transduction, pLX317
T5 sequence (Q61038 whole entry): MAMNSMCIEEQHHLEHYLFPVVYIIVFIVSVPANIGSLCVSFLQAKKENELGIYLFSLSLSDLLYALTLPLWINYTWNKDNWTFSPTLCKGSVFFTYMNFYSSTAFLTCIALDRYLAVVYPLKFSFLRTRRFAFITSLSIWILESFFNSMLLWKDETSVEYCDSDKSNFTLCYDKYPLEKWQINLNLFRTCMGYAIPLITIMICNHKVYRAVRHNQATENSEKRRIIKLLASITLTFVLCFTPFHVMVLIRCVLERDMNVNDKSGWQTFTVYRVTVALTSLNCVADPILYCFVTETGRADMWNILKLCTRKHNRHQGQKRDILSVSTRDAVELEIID
Outline: as §2

mGPR65-SmBiT = target: T6, mGPR65-SmBiT (Mus musculus, UniProt Q61038); experiment: Nano-BiT target engagement, LgBiT-mGs recruitment to mGPR65-SmBiT; type: cell-based; conditions: 10 μM
T6 construct: expressed in transfected cells; host or cells: Expi293F (Gibco), transient transfection
T6 sequence (Q61038 whole entry): as above
Protocol: as §1

[3] = 1st hGPR column pair, NA = no activity
[4] = 2nd hGPR column pair, NA = no activity
[5] = 2nd mGPR column pair, NA = no activity

## Cc1ccc(NC(=O)c2cnn3c(O)cc(-c4ccc(COC(C)C)cc4)nc23)nc1 [BRD5075, O=C(NC1=NC=C(C)C=C1)C2=C3N(N=C2)C(O)=CC(C4=CC=C(COC(C)C)C=C4)=N3]
[1]; 50 μM, 72 hours
  cell viability: slight decrease in cell viability
[1]; 72-hour incubation, 0-50 μM
  cytotoxicity: not cytotoxic
hGPR65 I231L-SmBiT
  G protein recruitment in cells expressing hGPR65 I231L: able to recruit G protein
hGPR65-SmBiT; 0-50 μM
  effect of concentration on mGs recruitment: dose-dependent effect
hGPR65-SmBiT; 10 μM
  mGs recruitment / engagement of hGPR65: showed engagement
hGPR65-SmBiT; 10 μM, HCl or H2O at cycle 10
  activity after HCl versus water, hGPR65: showed activity when preceded by the addition of HCl but not water
hGPR65; 0 to 50 μM, pH range of 6.6 to 7.6
  mode of action from pH-dependent cAMP production: PAMs
hGPR65; 1.56 μM, pH 7.2
  activity for hGPR65 among prioritized molecules: highest activity
hGPR65; [3]
  Emax: 80.3%
hGPR65; [4]
  Emax: 78.6%
hGPR65; hGPR EC50 (uM), NA = no activity
  EC50: 0.377 µM
hGPR65; hGPR EC50 (uM), pH 7.2, 30 min
  EC50: 1.2 µM
hGPR65; hGPR EC50, NA = no activity
  EC50: 1.1 µM
hGPR65; hGPR EC50, pH 7.2, 30 min
  EC50: 0.699 µM
hGPR65; pH 7.2
  cAMP activity, hGPR65: at least 40%
[2]
  solubility: 116 µM (≈ 48.4 µg/mL)
hGPR4-SmBiT
  response in cells expressing hGPR4-SmBiT: failing to elicit responses
Lipophilicity (logD); pH 7.4, pH7.4, read-out: LogD (pH7.4)
  logD: 3.57
Lipophilicity (logD); read-out: lipophilicity (logD)
  logD: 3.57
mGPR65; 1.56 μM, pH 7.2
  activity for mGPR65 among prioritized molecules: highest activity
mGPR65; HeLa cells
  cAMP response against mGPR65 among prioritized compounds: highest cAMP response
mGPR65; [5]
  Emax: 69.6%
mGPR65; NA = no activity
  Emax: 70.8%
mGPR65; mGPR EC50 (uM), 2nd mGPR column pair, NA = no activity
  EC50: 0.952 µM
mGPR65; mGPR EC50 (uM), first pair of columns, pH 7.2, 30 min
  EC50: 1.04 µM
mGPR65; mGPR EC50 (uM), second pair of columns, pH 7.2, 30 min
  EC50: 0.997 µM
mGPR65; mGPR EC50 (uM), NA = no activity
  EC50: 0.892 µM
mGPR65; pH 7.2
  cAMP activity, mGPR65: at least 40%
mGPR65-SmBiT
  mGs recruitment / engagement of mGPR65: showed engagement
mGPR65-SmBiT; HCl or H2O at cycle 10
  activity after HCl versus water, mGPR65: showed activity when preceded by the addition of HCl but not water

## CN1N=C(SCc2ccc(Cl)cc2Cl)Sc2c1cnn(C)c2=O [BTB09089, reference compound]
hGPR65-SmBiT; 10 μM
  mGs recruitment / engagement of hGPR65: limited activity toward hGPR65
hGPR65; 1st hGPR column pair, NA = no activity, read-out: hGPR EC50
  EC50: 6.35 µM
hGPR65; 2nd hGPR column pair, NA = no activity, read-out: hGPR EC50
  EC50: 1.37 µM
hGPR65; [3]
  Emax: 53.5%
hGPR65; [4]
  Emax: 31.1%
mGPR65; 2nd mGPR column pair, NA = no activity, read-out: mGPR EC50
  EC50: 0.458 µM
mGPR65; [5]
  Emax: 76.4%
mGPR65; NA = no activity
  Emax: 82.8%
mGPR65-SmBiT
  mGs recruitment / engagement of mGPR65: increases in luminescence independent of pH changes
